Data as given in paper PMC11443414 (RSC Advances, 2024).
pKd: −log10 of the molar value. Structures can show the parent of a compound that is named as a salt.

Experiments:
[1] = target: T1, urease subunit gamma (UreA) (Staphylococcus aureus, UniProt Q6GEE6); type: binding
T1 sequence (Q6GEE6 1-100): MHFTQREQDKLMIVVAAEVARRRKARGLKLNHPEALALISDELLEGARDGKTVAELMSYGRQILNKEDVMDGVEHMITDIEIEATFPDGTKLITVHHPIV

[2] = target: T1, urease subunit gamma (UreA); assay: DSF titration; type: binding

Row | Compound | STD-NMR (individual, group epitope mapping); DSF Tm shift [1] | pKd [2]
1 | CCOc1ccc(/C=C2\NCCc3cc(OCC)c(OCC)cc32)cc1OCC [compound 2, Drotaverine HCl] | Its GEM analysis indicated that CH2-18 received the highest saturation from the protein. | –
2 | O=C(O)c1cccnc1 [compound 11, Nicotinic acid] | – | 1.15
